The subject of test [1] is c-MPL. The test is described as follows: Cell surface c-MPL levels in MkPs by flow cytometry. It is filed as cell-based, mouse. Conditions: TPO 30 ng/ml.
Description: Detection of c-MPL from in vivo and in vitro experiments was performed as follows. After harvesting BM progenitor cells, RBCs were lysed and the cells were then resuspended in FACS buffer. Cells were then stained with a cocktail of lineage markers to allow negative selection of BM progenitor cells (Sca1, CD127, CD45R, CD19, CD11b, CD3e, TER-119, CD2, CD8, CD4, and Ly-6C/G; all FITC; eBioscience) and progenitor cell markers, ckit, CD16/CD32 (FcγRII/III), CD34, CD41 and c-MPL or isotype control and allowed to stain on ice for 30 mins. Cells were then washed and stained with a fluorescently conjugated secondary anti-rabbit antibody to detect the anti-c-MPL for a further 30 mins on ice. After this the cells were washed, resuspended in FACS buffer and run on the LSRII. MEPs were identified as lin^− ckit^+CD16/CD32^loCD34^loCD41^−, while MkPs were identified as lin^−ckit^+CD16/CD32^loCD34^loCD41^+.
In the next test the test system is c-CBL. The test is described as follows: c-Cbl tyrosine phosphorylation in MkPs in response to TPO, flow cytometry. The test is classed as cell-based, mouse. As for the experimental part: BM progenitor cells were stimulated with TPO at the indicated concentration for the specified period of time at 37° C. and then immediately diluted with ice-cold buffer and placed on ice to prevent further changes in phosphorylation. Cells were then centrifuged and the pellet resuspended in BD fix buffer (BD Biosciences) for 10 mins on ice. The cells were washed with BD flow cytometry staining buffer, centrifuged and then resuspended in BD cytofix/perm buffer III for 20 mins. After this the cells were washed and resuspended in BD staining buffer and incubated with lineage (Sca1, CD127, CD45R, CD19, CD11b, CD3e, TER-119, CD2, CD8, CD4, and Ly-6G; all FITC; eBioscience) and progenitor cell markers, ckit, CD16/CD32 (FcγRII/III), CD34, CD41 and anti-phospho-c-Cbl ([…]/[…]; BD biosciences) or an isotype control for 30 mins on ice. The cells were then washed, resuspended in FACS buffer and run on an LSRII. Phosphorylated c-Cbl was normalized against isotype control staining.

Test [2] deals with LacZ-positive splenic cells. Briefly: LacZ-positive splenic cells after phenylhydrazine injection. The test is classed as in vivo, mouse. The settings on record: Abcg4−/− mice on chow diet, 3 days after injections. The text has this:
FIG. 6. (A) Representative of LacZ staining of BM sections of WT or Abcg4^−/− mice fed chow diet. Megakaryocytes are indicated by black arrows while LacZ-positive cells are indicated by white arrows Original magnification 20×. (B) Lac-Z staining of spleen of WT and Abcg4^−/− mice fed the chow diet and (C) from Abcg4^−/− BM Ldlr^−/− recipient mice fed WTD for 12 weeks. (D) Representative LacZ staining of spleen sections and quantification of LacZ-positive splenic cells of Abcg4^−/− mice fed the chow diet 3 days after either vehicle or phenylhydrazine injections. Error bars are S.D (n=5). * P<0.05.
Tissues and proximal aortas were serially paraffin sectioned and stained with H&E for morphological analysis as described^2. Aortic lesion size of each animal was calculated as the mean of lesion areas in 5 sections from the same mouse. Bone samples were decalcified with EDTA solution prior to cryosectioning. Von Willibrand Factor antibody (Dako, Catalog #A0082) was used to stain MKs. Lac-Z staining of frozen sections of mouse bone, spleen or proximal aorta was carried out using β-Galactosidase Staining Kit (Cell Signaling Technology, Danvers, Mass.).

In test [3] the target is T1, c-MPL (Mus musculus, UniProt Q08351).
T1 construct: increasing platelet counts in mice and other species; host or cells: mice (in vivo)
T1 sequence (Q08351 26-625): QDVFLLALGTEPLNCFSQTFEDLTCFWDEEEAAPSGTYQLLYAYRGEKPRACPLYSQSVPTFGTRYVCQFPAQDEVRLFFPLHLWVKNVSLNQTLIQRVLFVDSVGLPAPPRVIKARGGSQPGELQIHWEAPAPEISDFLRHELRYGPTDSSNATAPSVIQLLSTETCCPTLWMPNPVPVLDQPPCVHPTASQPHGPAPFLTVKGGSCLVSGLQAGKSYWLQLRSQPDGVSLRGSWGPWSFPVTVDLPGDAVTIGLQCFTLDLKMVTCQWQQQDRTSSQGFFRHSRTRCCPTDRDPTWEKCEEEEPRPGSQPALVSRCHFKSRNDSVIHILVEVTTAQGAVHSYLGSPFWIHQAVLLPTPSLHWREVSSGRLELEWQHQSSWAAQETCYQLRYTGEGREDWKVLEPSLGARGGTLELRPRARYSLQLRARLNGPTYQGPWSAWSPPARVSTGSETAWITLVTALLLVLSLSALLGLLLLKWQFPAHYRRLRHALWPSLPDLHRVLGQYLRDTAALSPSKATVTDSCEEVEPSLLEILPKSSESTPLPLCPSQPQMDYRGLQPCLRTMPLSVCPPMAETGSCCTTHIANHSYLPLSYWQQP
The settings on record: mice and other species; Broudy & Lin 2004; cited from earlier work.

The next test deals with p-STAT-5 and p-ERK1/2. The test is described as follows: p-STAT5 and p-ERK1/2 levels in MkPs with or without TPO. It is filed as cell-based, mouse. The settings on record: WT and Abcg4−/− MkPs; TPO 30 ng/ml for 10 minutes. As for the experimental part: FIG. 3. Shown are results all from WT, Abcg4^−/− or Lyn^−/− MkPs (n=4). (A) Quantification of tyrosine-phosphorylated c-CBL in response to TPO. (B) Tyrosine-phosphorylated c-CBL levels 5 min after TPO treatment and with or without pretreatment with CD (3 mM), CD-chol (3 mM CD) for 30 min or rHDL (20 μg apoA-I/ml) for 2 hours. (C) Tyrosine-phosphorylated c-CBL with or without 5 min TPO treatment or SU6656 pretreatment (10 μg/ml for 2 h). (D) Cell surface c-MPL with or without TPO or SU6656 treatment for 2 h. (E) Tyrosine-phosphorylated c-CBL (5 min in response to TPO). (F) cell surface c-MPL (2 h TPO treatment) with or without pretreatment with CD-chol (3 mM CD) for 30 min. (G) 16 h EdU incorporation in the presence of TPO and with or without CD (3 mM), CD-Chol (3 mM CD) pretreatment for 30 min or rHDL (20 μg/ml) for 16 h. (H) p-STAT-5 and p-ERK1/2 levels with or without TPO for 10 minutes. TPO was 30 ng/ml for all the assays shown. Error bars are S.E.M. *P<0.05 WT vs Abcg4^−/− TPO and ^P<0.05 for treatment effect.

The test system of the next test is platelets. The test is described as follows: Platelet count after a single dose of recombinant TPO in chow-fed mice. The test is classed as in vivo, mouse. Conditions: single dose TPO 50 μg/kg BW. As for the experimental part: FIG. 2. (A) Abcg4 mRNA expression in various types of BM and peripheral white blood cells in WT mice determined by q-PCR. (n=5). (B) Quantification of BM cell populations and (C) cell surface c-MPL levels of Ldlr^−/− recipient mice fed WTD for 12 weeks (n=5). (D) MK-CFU assay using HPCs harvested by FACS from WT or Abcg4^−/− mice. (E) Platelet count in the WT and Abcg4^−/− mice (n=5) receiving a single dose of TPO (50 μg/kg BW) or the vehicle control. The representative of two studies with similar results is shown. (F) Bodipy-cholesterol efflux from WT or Abcg4^−/− MkPs to CD (2 mM) or rHDL (20 μg/ml) for 2 hours (n=4). (G) Bodipy-cholesterol levels in WT or Abcg4^−/− MkPs following CD/Bodipy-cholesterol loading (n=4). (H) EdU incorporation into and (I) cell surface c-MPL of WT or Abcg4^−/− MkPs were determined by flow cytometry (n=4). Error bars are S.E.M. *P<0.05 WT versus Abcg4^−/− groups and ^P<0.05 for treatment effect.
Mice and Treatments Abcg4^−/−, Abcg1 Abca1^−/−, and Abcg1^−/− mice were created as described (Wang, N. et al. 2006; Yvan-Charvet, L. et al. 2010) and used in this study. Abcg4^−/− mice have been backcrossed onto C57BL6/J mice for more than 10 generations. WT (C57BL/6J) and Ldlr^−/− (B6.12957-Ldlrtm1Her) were obtained from The Jackson Laboratory (Bar Harbor, Me.). […]
CBCs were quantified using whole blood collected from the tail bleeding. […]

The test system of test [4] is total BM cells from WT or Abcg4−/− mice. The test is described as follows: MK-CFU assay with total BM cells, with or without CD pretreatment. The settings on record: CD 3 mM pretreatment for 30 minutes. It is filed as cell-based, mouse. As to the method: FIG. 13. (A) Fluorescence confocal microscopy of WT or Abcg4^−/− MkPs treated with CD/Bodipy-cholesterol (0.03 mM CD) for 30 min and (B) confocal microscopy and quantification of fillipin stained WT or Abcg4^−/− MkPs. Gene expression was determined by q-PCR in (C) MEPs or (D) GMPs from the WT or Abcg4^−/− BM Ldlr^−/− recipient mice (n=5) fed WTD for 12 weeks. Error bars are S.D (n=10). *P<0.05. (E) MK-CFU assays using total BM cells from WT or Abcg4^−/− mice with or without pretreatment with CD (3 mM) for 30 minutes. Error bars are S.E.M. *P<0.05.
Primary BM HSPC cells obtained by FACS were plated in methylcellulose-based media (5000 cells/assay) containing TPO (50 ng/mL), IL-6 (20 ng/mL), and IL-3 (10 ng/mL) and incubated for 8 days according to manufacturer's protocol (Megacult-C, Stemcell Technologies). Cultures were fixed and the MK colonies visualized by staining for acethylcholinesterase activity. Nuclei were counterstained with Harris' hematoxylin. Colonies containing more than 3 megakaryocytes were scored as CFU-Mk.

A further test deals with MkPs. Briefly: MkP proliferation by EdU incorporation. It is filed as cell-based, mouse. The settings on record: in the presence of TPO. As to the method:
FIG. 3. Shown are results all from WT, Abcg4^-/- or Lyn^-/- MkPs (n=4). (A) Quantification of tyrosine-phosphorylated c-CBL in response to TPO. (B) Tyrosine-phosphorylated c-CBL levels 5 min after TPO treatment and with or without pretreatment with CD (3 mM), CD-chol (3 mM CD) for 30 min or rHDL (20 μg apoA-I/ml) for 2 hours. (C) Tyrosine-phosphorylated c-CBL with or without 5 min TPO treatment or SU6656 pretreatment (10 μg/ml for 2 h). (D) Cell surface c-MPL with or without TPO or SU6656 treatment for 2 h. (E) Tyrosine-phosphorylated c-CBL (5 min in response to TPO). (F) cell surface c-MPL (2 h TPO treatment) with or without pretreatment with CD-chol (3 mM CD) for 30 min. (G) 16 h EdU incorporation in the presence of TPO and with or without CD (3 mM), CD-Chol (3 mM CD) pretreatment for 30 min or rHDL (20 μg/ml) for 16 […]-5 and p-ERK1/2 levels with or without TPO for 10 minutes. TPO was 30 ng/ml for all the assays shown. Error bars are S.E.M. *P<0.05 WT vs Abcg4^-/- TPO and ^P<0.05 for treatment effect. Blood leukocytes and BM HSPCs were stained and analyzed or sorted as described (Murphy, A. J. et al. 2011). Briefly, BM cells from the mouse femurs and tibias were stained with a cocktail of antibodies to lineage committed cells (CD45R, CD19, CD11b, CD3e, TER-119, CD2, CD8, CD4, Ly-6C/G: All FITC, eBioscience), antibodies to Sca1 (Pacific Blue) and ckit (APC Cy7) to identify HSPC populations and LSK (lin-, Sac1+ and ckit+) cells, and antibodies to CD16/CD32 (FcγRII/III), CD34 to separate CMP (lin-, Sca1-, ckit+, CD34int, […] (lin-, Sca1-, ckit+, CD34int, […] (lin-, Sca1-, ckit+, CD34lo, FcγRII/IIIlo). For DNA content analysis (G2M phase), BM cells were fixed, and stained with DAPI (Invitrogen) prior to flow cytometry analysis. To determine in vivo cell proliferation, EdU (Invitrogen) was injected into mice via the tail vein 24 hours prior to being sacrificed. Cells were immunostained as described above in preparation for flow cytometry. Cells were then fixed and permeabilized using 0.01% saponin (w/v; Fluka) and 1% FCS (v/v) in IC fixation buffer (eBiosciences) for 30 minutes. Cells were then washed and stained with Alexa Fluor-conjugated azides using the Click-iT system (Invitrogen). Proliferation was quantified as percentage of EdU^+ cells by flow cytometry.

Where a SMILES comes first, the peptide text is derived from it. The star is where a group is joined. Cbz = O=C(OCc1ccccc1)*

Turning to `CC(C)C[C@@H](C=O)NC(=O)[C@H](CC(C)C)NC(=O)[C@H](CC(C)C)NC(=O)OCc1ccccc1` [MG132] (Cbz-Leu-Leu-Leu-aldehyde), the “cell surface c-MPL levels” value in the test on c-MPL [1] (WT MkPs) was “increased”.

With `CN(C)S(=O)(=O)c1ccc2c(c1)/C(=C/c1cc3c([nH]1)CCCC3)C(=O)N2` [SU6656], the c-CBL tyrosine phosphorylation entry with c-CBL (WT and Abcg4−/− MkPs) is reported as “markedly decreased”. For the same compound, in the test with c-MPL [1] (WT and Abcg4−/− MkPs), the “cell surface c-MPL levels” value is reported as “increased”.

In the case of `CCN(CC)CCO[C@H]1CC[C@@]2(C)C(=CC[C@@H]3[C@@H]2CC[C@]2(C)C(=O)CC[C@@H]32)C1` [U18666A], the c-CBL tyrosine phosphorylation result with c-CBL (Abcg4−/− MkPs) was “reversed”. In addition, the “cell surface c-MPL levels” value with c-MPL [1] (Abcg4−/− MkPs) is listed as “reversed”.

In the case of `NNc1ccccc1` [phenylhydrazine], in test [2], the “LacZ positive cells in the spleen” value is “marked expansion”.

On to Romiplostim, for which the platelet counts entry on c-MPL [3] is “increasing”.

For “TPO: Thrombopoietin, growth factor regulating megakaryocyte/platelet lineage development (R&D Systems)”, in the test with p-STAT-5 and p-ERK1/2, the p-ERK1/2 levels result was “increased” and the p-STAT5 levels entry was “increased”. For the same compound, the increase in platelets in the test with platelets (chow-fed Abcg4−/− mice) is 2.1 fold. For the same compound, the increase in platelets with platelets (chow-fed WT mice) is recorded as 1.4 fold.

As to cyclodextrin [CD], the c-CBL tyrosine phosphorylation entry in the test with c-CBL (WT and Abcg4−/− MkPs) is reported as “increased”. Further, the “cell surface c-MPL levels” value with c-MPL [1] (WT and Abcg4−/− MkPs) was “significantly reduced”. In addition, the “increase in megakaryocyte colonies associated with ABCG4 deficiency” value in test [4] is listed as “reversed”. For the same compound, the MkP proliferation result in the test on MkPs (Lyn−/− MkPs) was “completely unresponsive”; in the test on MkPs (WT MkPs), “decreased”; in the test with MkPs (WT and Abcg4−/− MkPs), “significantly reduced”.

The values above are taken from patent publication US9687486B2, “Methods of treating atherosclerosis or myeloproliferative neoplasms by administering a lyn kinase activator” (THE TRUSTEES OF COLUMBIA UNIVERSITY IN THE CITY OF NEW YORK, priority 2012, dated 2017).
